How the values were obtained:
[1] = Peptide stability in HEK293T cell lysate; assay type: in vitro ADME; conditions: human, HEK293T lysate 1 mg/ml in PBS, 1 mM peptide, 37 °C, HPLC/LCMS peak area normalized to ethylparaben standard, read-out: peptide still intact after 24 hours in cell lysate
Text: Stapled peptides have been reported to be able to pass cell membranes with high efficiency, but their cell permeability is dependent on the peptide sequence and the position of the staple.[41] To evaluate whether the α3-helix derived peptide is cell permeable, we used azidolysine derivatized variants of P-6 and P-6S (P-6-Az and P-6S-Az) and used them in the NanoClick assay.[60] In this assay cells are transfected to express a NanoLuc–HaloTag fusion protein followed by treatment with a dibenzoazacyclooctyne reagent modified with a chloroalkane (DIBAC–CA) that covalently modifies the HaloTag protein. When an azide modified NanoBRET acceptor (NB618-Az) is added, it will undergo strain promoted azide–alkyne cycloaddition (SPAAC) with the DIBAC–CA placing the acceptor in the proximity of the NanoLuc protein leading to an observable BRET signal. […] The SPAAC reaction only happens if the peptide is able to reach the cytosol and the assay therefore provides a read-out of cell-permeability. […]
Peptide stability was measured in HEK293T lysates. […]
The samples were chilled on ice for 15 min and insoluble material was removed by centrifugation (16873 x g, 4 °C, 10 min). The supernatant was analysed by LCMS with a gradient of H2O (0.1% TFA) and ACN (0.1% TFA) from 5 to 95 % over 20 min. […]

hnRNP A2/B1 = target: T1, hnRNP A2/B1 (Homo sapiens, UniProt P22626); experiment: Competitive fluorescence polarization assay, hnRNP A2/B1 and RNA-AB; assay type: binding; conditions: Fig. 3C; competitive FP, 10 nM hnRNPA2/B1, 1 nM Cy5-labeled RNA-AB, 25 mM HEPES pH 8.0; read-out: P-6 Ki, construct hnRNP A2/B1
T1 construct: (1-251); made in house; host or cells: E. coli BL21 (DE3) RIPL
T1 sequence (P22626 1-251, species assumed): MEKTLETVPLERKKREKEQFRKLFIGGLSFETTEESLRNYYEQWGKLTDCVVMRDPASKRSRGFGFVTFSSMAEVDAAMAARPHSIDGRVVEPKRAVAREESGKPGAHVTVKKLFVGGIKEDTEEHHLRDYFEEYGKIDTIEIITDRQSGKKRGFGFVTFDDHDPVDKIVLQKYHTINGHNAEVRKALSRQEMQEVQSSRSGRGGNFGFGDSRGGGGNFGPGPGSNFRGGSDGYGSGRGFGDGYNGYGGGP
Text: The RRM domain is the most commonly occurring RNA-binding domain in the proteome making it challenging to find selective inhibitors.[23,46] Although various ligands have been described, their selectivity is rarely investigated, with an exception for the Musashi-1 inhibitor Ro 08-2750.[47–58] To investigate whether P-6 has an effect on the RNA-binding of other dual RRM containing proteins, we evaluated its inhibitory potency against another hnRNP protein (hnRNP A2/B1) as well as a splicing factor from the SR-protein class (SRSF1).[1] We evaluated P-6 in competitive fluorescence polarization assays using previously described RNAs recognized by these proteins.[59] […]
performed in FP bufferPTBP1. […]
serially diluted in the same buffer. […]
a final concentration of 10 nM probe. […]
the settings mentioned previously.
Fluorescence polarization assay with SRSF1
Fluorescence polarization was
Fluorescence polarization assay with hnRNPA2/B1
For the competitive assay 10 nM
Microscale thermophoresis […]
afterwards serially diluted into FP buffer.
The data was evaluated at […]
experiments were performed in duplicates.
Circular Dichroism Spectroscopy […]
secondary structure analysis with a reference data set. For experiments with PTBP1 constructs the […]

Row | SMILES | remaining at 24 h, 1 mM [1] | Ki (hnRNP A2/B1)
1 | CC(=O)N[C@@H](CC(N)=O)C(=O)N[C@@H](CCC(N)=O)C(=O)N[C@@]1(C)CCCCCCCC[C@@](C)(C(=O)N[C@@H](C)C(=O)N[C@@H](CC(C)C)C(=O)N[C@@H](CCC(N)=O)C(=O)N[C@@H](C)C(=O)N[C@H](C(=O)N[C@@H](CC(N)=O)C(N)=O)C(C)C)NC(=O)[C@H](CCC(N)=O)NC(=O)[C@H](C)NC(=O)[C@H](CCCNC(=N)N)NC1=O [Peptide P-2] | 12% | –
2 | CC(=O)N[C@@H](CC(N)=O)C(=O)N[C@@H](CCC(N)=O)C(=O)N[C@@]1(C)CCCC=CCCCC2(CCCC=CCCC[C@](C)(C(=O)N[C@H](C(=O)N[C@@H](CC(N)=O)C(N)=O)C(C)C)NC(=O)[C@H](CCC(N)=O)NC(=O)[C@H](CC(C)C)NC(=O)[C@H](C)NC2=O)NC(=O)[C@H](CCC(N)=O)NC(=O)[C@H](C)NC(=O)[C@H](CCCNC(=N)N)NC1=O (stereo partly drawn) [Peptide P-6] | 43% | > 1 mM

From publication PMC10411625, “Rationally designed stapled peptides allosterically inhibit PTBP1–RNA-binding” (Chemical Science, 2023)
